Values joined by “and” are separate entries in the source; they are usually repeats but may differ in a detail not shown here. Equal values may be shown once. Read-outs that look alike come from different tables or passages of the source. One block for each compound: values may come before it.
Tests used:
MMP-9 = target: T1, MMP-9 (Homo sapiens, UniProt P14780); assay: MMP-9 inhibition assay (fluorogenic peptide substrate); format: biochemical; design: remaining enzyme activity (% of control): scale not given here; settings: for IC50: n.d: not detected
T1 construct: purchased Sino Biological 10327-HNAH
T1 sequence (P14780 107-707 limits assumed): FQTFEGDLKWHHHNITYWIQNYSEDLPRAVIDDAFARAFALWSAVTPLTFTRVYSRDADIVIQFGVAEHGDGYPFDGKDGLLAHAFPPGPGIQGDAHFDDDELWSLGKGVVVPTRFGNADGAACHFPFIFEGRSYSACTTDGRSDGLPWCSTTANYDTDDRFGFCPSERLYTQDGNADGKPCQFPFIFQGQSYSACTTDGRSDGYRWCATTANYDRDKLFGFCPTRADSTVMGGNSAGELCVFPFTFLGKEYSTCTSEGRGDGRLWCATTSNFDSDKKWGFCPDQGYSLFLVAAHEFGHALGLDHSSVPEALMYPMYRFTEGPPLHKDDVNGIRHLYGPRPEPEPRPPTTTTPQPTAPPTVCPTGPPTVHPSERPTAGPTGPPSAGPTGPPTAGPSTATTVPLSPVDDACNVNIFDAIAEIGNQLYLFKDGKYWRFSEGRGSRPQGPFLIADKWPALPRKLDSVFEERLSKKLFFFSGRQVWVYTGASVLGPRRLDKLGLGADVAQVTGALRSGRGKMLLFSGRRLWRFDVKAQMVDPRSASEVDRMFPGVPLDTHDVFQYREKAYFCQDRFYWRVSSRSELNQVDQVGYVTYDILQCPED
In short: (§1)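 Hydrolysis of DNP-Pro-Leu-Gly-Met-Trp-Ser-Arg (25 μM final) was tracked kinetically at em 360 nm over 30 min. Enzymes, APMA-activated and at 10 nM (MMP-9) or 6.5 nM (MMP-2) final, sat 30 min at RT with inhibitor in pH 7.5 Tris buffer with CaCl2 and Brij 35 first. Logistic fitting of Vmax against concentration gave IC50, in triplicate.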

MMP-2 = target: T2, MMP-2 (Homo sapiens, UniProt P08253); assay: MMP-2 inhibition assay (fluorogenic peptide substrate); format: biochemical; settings: for IC50: n.d: not detected
T2 construct: purchased Sino Biological 10082-HNAH
T2 sequence (P08253 110-660): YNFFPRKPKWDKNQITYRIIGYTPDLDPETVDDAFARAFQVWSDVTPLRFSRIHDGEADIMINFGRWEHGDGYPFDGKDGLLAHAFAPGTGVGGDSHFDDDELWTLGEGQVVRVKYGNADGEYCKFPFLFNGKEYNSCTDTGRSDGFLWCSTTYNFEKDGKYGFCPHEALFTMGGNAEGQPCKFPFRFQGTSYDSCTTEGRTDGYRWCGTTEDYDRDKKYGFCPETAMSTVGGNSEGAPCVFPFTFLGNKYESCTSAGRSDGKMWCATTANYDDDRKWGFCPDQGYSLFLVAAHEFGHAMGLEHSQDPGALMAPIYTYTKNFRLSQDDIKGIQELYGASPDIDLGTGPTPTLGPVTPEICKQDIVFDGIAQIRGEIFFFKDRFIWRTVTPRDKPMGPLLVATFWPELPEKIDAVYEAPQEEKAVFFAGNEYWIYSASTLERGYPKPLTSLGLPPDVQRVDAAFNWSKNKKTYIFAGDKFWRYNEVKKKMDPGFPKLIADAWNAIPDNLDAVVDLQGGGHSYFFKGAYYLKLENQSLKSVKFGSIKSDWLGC
In short: as §1

[1] = MMP-9, concentration 1219.00 µM
[2] = mean ± SE, Fig. 5e prints no unit, µM, read-out: IC50
[3] = MMP-2, concentration 1219.00 µM
[4] = mean ± SE, Fig. 5d unit inferred, µM, read-out: IC50
[5] = Figure 5d, fragment combination joined by linker, read-out: MMP9 IC50
[6] = Figure 5d, fragment combination joined by linker, read-out: MMP2 IC50

IC50 (MMP-9; [5]): 58.9 µM
IC50 (MMP-2; [6]): 210 µM
Compound: Cc1cc(=O)[nH]c(-n2nc(C)c(CCC(=O)NCCNC(=O)CC(=O)/C=C/CCCCNC(=O)c3cnc4c(c3)nc(O)n4C)c2C)n1 [693_826 12]

IC50 (MMP-9; [5]): 358 µM
IC50 (MMP-2; [6]): 417 µM
Compound: Cc1cc(=O)[nH]c(-n2nc(C)c(CCC(=O)NCCSCC(=O)NCCNC(=O)c3cnc4c(c3)nc(O)n4C)c2C)n1 [693_826 24]

IC50 (MMP-9; [5]): 232 µM
IC50 (MMP-2; [6]): 110 µM
Compound: Cc1cc(=O)[nH]c(-n2nc(C)c(CCC(=O)NCCNC(=O)c3cncc(O)c3)c2C)n1 [693_828 1]

IC50 (MMP-9; [5]): 261 µM
IC50 (MMP-2; [6]): 212 µM
Compound: Cc1cc(=O)[nH]c(-n2nc(C)c(CCC(=O)NCCCCCCCCNC(=O)c3cncc(O)c3)c2C)n1 [693_828 4]

IC50 (MMP-9; [5]): 201 µM
IC50 (MMP-2; [6]): 186 µM
Compound: Cc1cc(=O)[nH]c(-n2nc(C)c(CCC(=O)NCCOCCOCCNC(=O)c3cncc(O)c3)c2C)n1 [693_828 10]

IC50 (MMP-9; [5]): 80.5 µM
IC50 (MMP-2; [6]): 59.9 µM
Compound: Cc1cc(=O)[nH]c(-n2nc(C)c(CCC(=O)NCCNC(=O)CSCCNC(=O)c3cncc(O)c3)c2C)n1 [693_828 24]

The next lines start with the compound.

Compound: Cc1cc(=O)[nH]c(-n2nc(C)c(CCC(=O)NCCCCCCCCNC(=O)c3cncc(O)c3)c2C)n1 [693+828 Linker 4]
remaining enzyme activity (% of control) (MMP-9; MMP-9, concentration 0.08 µM): 97.75
remaining enzyme activity (% of control) (MMP-9; MMP-9, concentration 0.39 µM): 94.18
remaining enzyme activity (% of control) (MMP-9; MMP-9, concentration 1.95 µM): 90.34
remaining enzyme activity (% of control) (MMP-9; MMP-9, concentration 9.75 µM): 92.01
remaining enzyme activity (% of control) (MMP-9; MMP-9, concentration 48.76 µM): 87.31
remaining enzyme activity (% of control) (MMP-9; MMP-9, concentration 243.80 µM): 52.96
remaining enzyme activity (% of control) (MMP-9; [1]): 7.04
IC50 (MMP-9; [2]): 261 ± 31.3 µM
remaining activity (%) (MMP-2; MMP-2, concentration 0.0156 µM): 102.68
remaining activity (%) (MMP-2; MMP-2, concentration 0.08 µM): 100.17
remaining activity (%) (MMP-2; MMP-2, concentration 0.39 µM): 95.94
remaining activity (%) (MMP-2; MMP-2, concentration 1.95 µM): 99.37
remaining activity (%) (MMP-2; MMP-2, concentration 9.75 µM): 100.31
remaining activity (%) (MMP-2; MMP-2, concentration 48.76 µM): 87.56
remaining activity (%) (MMP-2; MMP-2, concentration 243.80 µM): 44.10
remaining activity (%) (MMP-2; [3]): 12.13
IC50 (MMP-2; [4]): 212 ± 15.9 µM

Compound: Cc1cc(=O)[nH]c(-n2nc(C)c(CCC(=O)NCCOCCOCCNC(=O)c3cncc(O)c3)c2C)n1 [693+828 Linker 10]
remaining enzyme activity (% of control) (MMP-9; MMP-9, concentration 0.08 µM): 97.89
remaining enzyme activity (% of control) (MMP-9; MMP-9, concentration 0.39 µM): 99.26
remaining enzyme activity (% of control) (MMP-9; MMP-9, concentration 1.95 µM): 97.73
remaining enzyme activity (% of control) (MMP-9; MMP-9, concentration 9.75 µM): 98.89
remaining enzyme activity (% of control) (MMP-9; MMP-9, concentration 48.76 µM): 84.90
remaining enzyme activity (% of control) (MMP-9; MMP-9, concentration 243.80 µM): 42.77
remaining enzyme activity (% of control) (MMP-9; [1]): 10.96
IC50 (MMP-9; [2]): 201 ± 21.3 µM
remaining activity (%) (MMP-2; MMP-2, concentration 0.0156 µM): 88.17
remaining activity (%) (MMP-2; MMP-2, concentration 0.08 µM): 88.67
remaining activity (%) (MMP-2; MMP-2, concentration 0.39 µM): 96.33
remaining activity (%) (MMP-2; MMP-2, concentration 1.95 µM): 93.57
remaining activity (%) (MMP-2; MMP-2, concentration 9.75 µM): 94.74
remaining activity (%) (MMP-2; MMP-2, concentration 48.76 µM): 85.76
remaining activity (%) (MMP-2; MMP-2, concentration 243.80 µM): 33.24
remaining activity (%) (MMP-2; [3]): 9.64
IC50 (MMP-2; [4]): 186 ± 15.7 µM

Compound: Cc1cc(=O)[nH]c(-n2nc(C)c(CCC(=O)NCCNC(=O)CC(=O)/C=C/CCCCNC(=O)c3cncc(O)c3)c2C)n1 [693+828 Linker 12]
remaining activity at 0.04 µM (MMP-9; MMP-9, concentration 0.04 µM, read-out: Mean (MMP-9 dose-response, Supplementary fig 15)): 95.5%
remaining activity at 0.21 µM (MMP-9; MMP-9, concentration 0.21 µM, read-out: Mean (MMP-9 dose-response, Supplementary fig 15)): 89%
remaining activity at 1.04 µM (MMP-9; MMP-9, concentration 1.04 µM, read-out: Mean (MMP-9 dose-response, Supplementary fig 15)): 89.5%
remaining activity at 5.19 µM (MMP-9; MMP-9, concentration 5.19 µM, read-out: Mean (MMP-9 dose-response, Supplementary fig 15)): 71.7%
remaining activity at 25.96 µM (MMP-9; MMP-9, concentration 25.96 µM, read-out: Mean (MMP-9 dose-response, Supplementary fig 15)): 32.6%
remaining activity at 129.8 µM (MMP-9; MMP-9, concentration 129.80 µM, read-out: Mean (MMP-9 dose-response, Supplementary fig 15)): 0%
remaining activity at 649 µM (MMP-9; MMP-9, concentration 649.00 µM, read-out: Mean (MMP-9 dose-response, Supplementary fig 15)): 0%
IC50 (MMP-9; [2]): 14.8 µM and 15 µM
remaining activity at 0.00831 µM (MMP-2; MMP-2, concentration 0.00831 µM, read-out: Mean (MMP-2 dose-response, Supplementary fig 15)): 95.7%
remaining activity at 0.04 µM (MMP-2; MMP-2, concentration 0.04 µM, read-out: Mean (MMP-2 dose-response, Supplementary fig 15)): 92.8%
remaining activity at 0.21 µM (MMP-2; MMP-2, concentration 0.21 µM, read-out: Mean (MMP-2 dose-response, Supplementary fig 15)): 86.2%
remaining activity at 1.04 µM (MMP-2; MMP-2, concentration 1.04 µM, read-out: Mean (MMP-2 dose-response, Supplementary fig 15)): 77.4%
remaining activity at 5.19 µM (MMP-2; MMP-2, concentration 5.19 µM, read-out: Mean (MMP-2 dose-response, Supplementary fig 15)): 60.2%
remaining activity at 25.96 µM (MMP-2; MMP-2, concentration 25.96 µM, read-out: Mean (MMP-2 dose-response, Supplementary fig 15)): 25.3%
remaining activity at 129.8 µM (MMP-2; MMP-2, concentration 129.80 µM, read-out: Mean (MMP-2 dose-response, Supplementary fig 15)): 0%
remaining activity at 649 µM (MMP-2; MMP-2, concentration 649.00 µM, read-out: Mean (MMP-2 dose-response, Supplementary fig 15)): 0%
IC50 (MMP-2; [4]): 10 µM

Compound: Cc1cc(=O)[nH]c(-n2nc(C)c(CCC(=O)NCCNC(=O)CSCCNC(=O)c3cncc(O)c3)c2C)n1 [693+828 Linker 24]
remaining enzyme activity (% of control) (MMP-9; MMP-9, concentration 0.04 µM): 101.25
remaining enzyme activity (% of control) (MMP-9; MMP-9, concentration 0.21 µM): 90.43
remaining enzyme activity (% of control) (MMP-9; MMP-9, concentration 1.04 µM): 102.01
remaining enzyme activity (% of control) (MMP-9; MMP-9, concentration 5.19 µM): 89.02
remaining enzyme activity (% of control) (MMP-9; MMP-9, concentration 25.96 µM): 79.56
remaining enzyme activity (% of control) (MMP-9; MMP-9, concentration 129.80 µM): 32.87
remaining enzyme activity (% of control) (MMP-9; MMP-9, concentration 649.00 µM): 0.00
IC50 (MMP-9; [2]): 80.5 ± 15.2 µM
remaining activity (%) (MMP-2; MMP-2, concentration 0.0156 µM): 100.00
remaining activity (%) (MMP-2; MMP-2, concentration 0.08 µM): 92.98
remaining activity (%) (MMP-2; MMP-2, concentration 0.39 µM): 98.13
remaining activity (%) (MMP-2; MMP-2, concentration 1.95 µM): 86.92
remaining activity (%) (MMP-2; MMP-2, concentration 9.75 µM): 82.64
remaining activity (%) (MMP-2; MMP-2, concentration 48.76 µM): 53.90
remaining activity (%) (MMP-2; MMP-2, concentration 243.80 µM): 16.08
remaining activity (%) (MMP-2; [3]): 0.00
IC50 (MMP-2; [4]): 59.9 ± 15.7 µM

Compound: Cc1cc(=O)[nH]c(-n2nc(C)c(CCC(=O)NCc3c[nH]nn3)c2C)n1 [693_787 1]
IC50 (MMP-9; [5]): 312 µM
IC50 (MMP-2; [6]): 204 µM

Compound: Cc1cc(=O)[nH]c(-n2nc(C)c(CCC(=O)NCCCCCCCCNC(=O)CCC(=O)NCc3c[nH]nn3)c2C)n1 [693_787 4]
IC50 (MMP-9; [5]): 250 µM
IC50 (MMP-2; [6]): 169 µM

Compound: Cc1cc(=O)[nH]c(-n2nc(C)c(CCC(=O)NCCOCCOCCNC(=O)CCC(=O)NCc3c[nH]nn3)c2C)n1 [693_787 10]
IC50 (MMP-9; [5]): 230 µM
IC50 (MMP-2; [6]): 171 µM

Compound: Cc1cc(=O)[nH]c(-n2nc(C)c(CCC(=O)NCCNC(=O)CC(=O)/C=C/CCCCNC(=O)CCC(=O)NCc3c[nH]nn3)c2C)n1 [693_787 12]
IC50 (MMP-9; [5]): 45.6 µM
IC50 (MMP-2; [6]): 68.4 µM

Compound: Cc1cc(=O)[nH]c(-n2nc(C)c(CCC(=O)NCCSCC(=O)NCc3c[nH]nn3)c2C)n1 [693_787 24]
IC50 (MMP-9; [5]): 270 µM
IC50 (MMP-2; [6]): 149 µM

Compound: Cc1cc(=O)[nH]c(-n2nc(C)c(CCC(=O)NCCNC(=O)CC(=O)/C=C/CCCCNC(=O)c3cncc(O)c3)c2C)n1 [693_828 12]
IC50 (MMP-9; [5]): 14.8 µM
IC50 (MMP-2; [6]): 10 µM

— article PMC10023787, “Trio-pharmacophore DNA-encoded chemical library for simultaneous selection of fragments and linkers” (Nature Communications, 2023)
